“Also recorded” adds a separate entry of the source.
How the values were obtained:
[1] = target: T1, α1β2γ2 GABAA receptors expressed in Xenopus laevis oocytes (Homo sapiens, UniProt P14867+P18507); test: Oocyte two-electrode voltage clamp electrophysiology, α1β2γ2; type: cell-based; settings: GABA at EC10-20, normalized to diazepam
T1 construct: expressed in transfected cells; host or cells: Xenopus laevis oocytes injected with cRNA
Protocol: (§1) FIG. 1. […] Efficacy profile on GABAA receptors in oocyte two-electrode voltage clamp recordings. […] Peak currents were read and normalized to a maximal effective concentration of diazepam, where after data points were fitted to the empirical Hill equation by non-linear regression, n=3−14.
(§2) The assay reported here is performed to determine the in vitro functional potency as well as efficacy of PAMs at the major brain GABAA receptors subtypes. To establish this, a full concentration response profile was determined at a GABA concentration giving rise to 5-20% of the maximal GABA-evoked response from α1β2γ2, α2β2γ2, α3β2γ2 and α5β2γ2 receptors expressed in Xenopus laevis oocytes.
Collagenase defolliculated X. laevis oocytes were obtained from Ecocyte Bioscience. For injection, the oocytes were placed in a custom designed chamber in Mod. Barth's solution (90 mM NaCl, 1 mM KCl, 0.66 mM NaNO3, 2.4 mM NaHCO3, 0.74 mM CaCl2, 0.82 mM MgCl2, 100 μg/ml Gentamicin and 10 mM HEPES adjusted to pH 7.55) and injected with 25-50 nl of cRNA mixture using a Pico Pump (WPI). The cRNA mixture contain GABAAR subunits αx, β2, and γ2s in the ratio of 3:1:3 and in a total concentration of 0.5 μg/μl. Following injection, oocytes were maintained at 18° C. in Mod.
Electrophysiological responses from X. laevis oocytes were measured using the two-electrode voltage clamp technique. Single oocytes were placed in custom designed recording chambers that were continuously perfused with ≥2 ml/min OR2 (90 mM NaCl, 2.5 mM KCl, 2.5 mM CaCl2, 1 mM MgCl2 and 5 mM HEPES pH 7.4). […] The oocyte was impaled using manual micro manipulators and allowed to equilibrate at a holding potential of −50 mV to −80 mV for at least 1 min to ensure a maximal leak current of 100 nA before the experiment was initiated. […] Currents were amplified by a Geneclamp 500B amplifier (Axon), low-pass filtered at 20 Hz, digitized at 200 Hz by a Digidata 1322A (Axon) and then recorded as well as analyzed by a PC (Compaq Evo) using the pClamp9 suite (Axon). […]

[2] = test system: male Sprague Dawley (SD) rats; test: Rotarod performance in male SD rats; settings: 10 mg/kg per oral, 60 minutes before test
Protocol: Rats were trained on the rota rod for two days at 4-40 rpm for 5 min before evaluating the drug effects on the 3rd day.
Male SD rats (150-180 grams, NTac:SD, Taconic, Denmark)
The rats were trained on an accelerating rotarod (4-40 rpm, PanLab), one trial of 5 minutes per day, for two days prior to drug testing. Only rats that were able to stay on the rotating rod for more than 90 seconds after two days of training were included in the study. At the day of testing, the rats were placed on the rotating rod, accelerating with a speed of 4-40 rpm/5 minutes with the minimum time possible to spend on the rod designated as 0 s, and the maximum time spent on the rod set at 300 s.

[3] = test system: Chronic Constriction Injury (CCI) in Rats; test: Mechanical allodynia in chronic constriction injury (CCI) rats, acute and chronic dosing; settings: for paw withdrawal threshold vs vehicle after chronic dosing: tested day 8
Protocol: Morphine was administered subcutaneously. […] The animals were tested after 14 days of surgery. **p<0.01,****p<0.0001 vs vehicle, Two-way ANOVA Fisher's LSD posttest, n=7−9.
Male SPRD rats (Taconic), 140-160 grams at surgery
The sciatic nerve was exposed at the mid-thigh level proximal to the sciatic trifurcation. Four chromic gut ligatures (4/0) (Ethicon, New Brunswick, N.J.) were tied loosely around the nerve, 1-2 mm apart, such that the vascular supply was not overtly compromised. The overlying muscle was closed in layers with 4/0 synthetic absorbable surgical suture.
Morphine-hydrochloride: 6 mg/kg free base weight, 1 ml/kg, subcutaneous administration. Pretreatment: 30 minutes
Morphine hydrochloride: 6 mg/kg free base weight, 1 ml/kg, subcutaneous administration once daily for 7 days.

[4] = test system: Compound 48/80 induced scratching in male CD-1 mice; test: Compound 48/80 induced scratching in male CD-1 mice
Protocol: Male CD-1 mice (22-30 g) (InterVivo Solutions, Canada)
All treatments were dosed at a dosing volume of 10 ml/kg.
Visual observation of bouts of scratching over 30 minutes. Visual assessments were performed blinded to treatment.

[5] = target: T2, α3β2γ2 GABAA receptors expressed in Xenopus laevis oocytes (Homo sapiens, UniProt P18507+P34903); test: Oocyte two-electrode voltage clamp electrophysiology, α3β2γ2; type: cell-based; settings: GABA at EC10-20; normalized to diazepam
T2 construct: expressed in transfected cells; host or cells: Xenopus laevis oocytes injected with cRNA
Protocol: as §1, §2
(§3) Collagenase defolliculated X. laevis oocytes were obtained from Ecocyte Bioscience. For injection, the oocytes were placed in a custom designed chamber in Mod. […]
(§4) Electrophysiological responses from X. laevis oocytes were measured using the two-electrode voltage clamp technique. […] Currents were amplified by a Geneclamp 500B amplifier (Axon), low-pass filtered at 20 Hz, digitized at 200 Hz by a Digidata 1322A (Axon) and then recorded as well as analyzed by a PC (Compaq Evo) using the pClamp9 suite (Axon). […]

[6] = target: T3, α2β2γ2 GABAA receptors expressed in Xenopus laevis oocytes (Homo sapiens, UniProt P18507+P47869); test: Oocyte two-electrode voltage clamp electrophysiology, α2β2γ2; type: cell-based; settings: GABA at EC10-20; normalized to maximal effective concentration of diazepam
T3 construct: expressed in transfected cells; host or cells: Xenopus laevis oocytes injected with cRNA
Protocol: as §1, §2, §3, §4

[7] = test system: male Sprague Dawley (SD) rats; test: Exploratory locomotor activity in male SD rats; type: in vivo, rat; settings: up to 30 mg/kg per oral, 120 minutes prior, recorded 30 minutes
Protocol: FIG. 4. […] The activity of the rats was automatically registered for 30 minutes (TSE MoTil, Germany).
Male SD rats (180-250 grams, NTac:SD, Taconic, Denmark)
2 hrs post dosing, the rats were placed individually into novel standard home cages with reduced sawdust bedding. The cages were placed in frames equipped with photocells and beams allowing for automatic recording of locomotor behaviour (TSE MoTil, Germany). The exploratory locomotor activity was recorded for 30 minutes.

[8] = target: T4, recombinant GABA α3β2γ2 receptors (HEK-293 cell membranes) (Homo sapiens, UniProt P18507+P34903); test: In vitro inhibition of 3H-flumazenil binding; settings: 3H-flumazenil 1 nM, 40 min at 2° C., HEK-293 α3β2γ2 membranes
T4 construct: expressed in transfected cells; membranes
Excerpt: Specific binding is total binding minus non-specific binding.

[9] = target: T5, α5β2γ2 GABAA receptors expressed in Xenopus laevis oocytes (Homo sapiens, UniProt P18507+P31644); test: Oocyte two-electrode voltage clamp electrophysiology, α5β2γ2; type: cell-based; settings: GABA at EC10-20; normalized to maximal effective concentration of diazepam
T5 construct: expressed in transfected cells; host or cells: Xenopus laevis oocytes injected with cRNA
Protocol: as §1, §2, §3, §4

T1 sequence (P14867 28-456): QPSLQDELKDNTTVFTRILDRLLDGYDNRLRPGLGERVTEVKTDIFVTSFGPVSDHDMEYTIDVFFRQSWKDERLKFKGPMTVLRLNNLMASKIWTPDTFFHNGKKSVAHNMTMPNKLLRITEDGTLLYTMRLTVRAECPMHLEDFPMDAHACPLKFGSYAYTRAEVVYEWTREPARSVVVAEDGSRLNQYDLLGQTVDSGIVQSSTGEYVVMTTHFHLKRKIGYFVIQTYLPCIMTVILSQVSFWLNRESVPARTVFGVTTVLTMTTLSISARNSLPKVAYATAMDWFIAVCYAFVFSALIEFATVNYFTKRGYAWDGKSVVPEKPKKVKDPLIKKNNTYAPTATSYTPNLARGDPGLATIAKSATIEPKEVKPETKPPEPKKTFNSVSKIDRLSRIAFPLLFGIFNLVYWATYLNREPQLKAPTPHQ
T1 sequence (P47870 25-512 partner limits assumed): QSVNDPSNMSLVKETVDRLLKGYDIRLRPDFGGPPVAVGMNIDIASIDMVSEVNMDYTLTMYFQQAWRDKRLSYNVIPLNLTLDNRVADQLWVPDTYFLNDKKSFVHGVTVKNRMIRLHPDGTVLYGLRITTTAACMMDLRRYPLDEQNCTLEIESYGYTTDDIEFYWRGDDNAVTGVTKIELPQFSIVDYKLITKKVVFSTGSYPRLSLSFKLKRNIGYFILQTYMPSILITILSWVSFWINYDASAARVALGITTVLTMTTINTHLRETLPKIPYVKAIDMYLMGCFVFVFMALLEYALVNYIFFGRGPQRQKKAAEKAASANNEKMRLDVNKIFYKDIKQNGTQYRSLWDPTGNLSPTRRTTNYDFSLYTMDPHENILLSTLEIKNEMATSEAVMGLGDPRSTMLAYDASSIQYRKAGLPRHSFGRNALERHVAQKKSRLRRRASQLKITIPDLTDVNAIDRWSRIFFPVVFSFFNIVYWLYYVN
T1 sequence (P18507 40-467 isoform P18507-1 limits assumed): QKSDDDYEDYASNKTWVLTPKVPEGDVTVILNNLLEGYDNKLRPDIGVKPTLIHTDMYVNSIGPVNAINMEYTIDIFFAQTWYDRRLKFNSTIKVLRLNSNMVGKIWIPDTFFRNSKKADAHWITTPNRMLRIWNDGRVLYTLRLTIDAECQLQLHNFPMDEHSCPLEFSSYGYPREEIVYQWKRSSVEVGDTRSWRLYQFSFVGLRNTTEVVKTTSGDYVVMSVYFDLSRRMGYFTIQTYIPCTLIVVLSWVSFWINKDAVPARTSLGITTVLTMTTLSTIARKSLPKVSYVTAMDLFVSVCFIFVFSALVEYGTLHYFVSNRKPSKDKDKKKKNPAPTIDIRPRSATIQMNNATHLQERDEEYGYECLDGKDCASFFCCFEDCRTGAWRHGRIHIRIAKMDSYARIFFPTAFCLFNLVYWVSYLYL
T4 sequence (P34903 29-492): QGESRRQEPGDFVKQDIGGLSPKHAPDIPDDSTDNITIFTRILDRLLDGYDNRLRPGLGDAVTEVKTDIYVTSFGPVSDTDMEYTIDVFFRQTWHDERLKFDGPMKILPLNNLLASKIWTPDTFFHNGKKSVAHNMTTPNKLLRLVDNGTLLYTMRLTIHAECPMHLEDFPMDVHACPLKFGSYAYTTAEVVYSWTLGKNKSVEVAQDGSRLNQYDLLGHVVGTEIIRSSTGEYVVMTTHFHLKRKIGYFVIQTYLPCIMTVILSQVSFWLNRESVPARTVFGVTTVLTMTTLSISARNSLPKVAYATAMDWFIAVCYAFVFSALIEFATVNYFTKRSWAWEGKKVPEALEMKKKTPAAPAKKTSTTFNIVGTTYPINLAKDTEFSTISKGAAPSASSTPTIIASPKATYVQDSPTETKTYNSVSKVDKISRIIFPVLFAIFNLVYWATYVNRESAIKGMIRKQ
T4 sequence (P47870 25-512 partner limits assumed): as the sequence (P47870 25-512 partner limits assumed) above
T4 sequence (P18507 40-475): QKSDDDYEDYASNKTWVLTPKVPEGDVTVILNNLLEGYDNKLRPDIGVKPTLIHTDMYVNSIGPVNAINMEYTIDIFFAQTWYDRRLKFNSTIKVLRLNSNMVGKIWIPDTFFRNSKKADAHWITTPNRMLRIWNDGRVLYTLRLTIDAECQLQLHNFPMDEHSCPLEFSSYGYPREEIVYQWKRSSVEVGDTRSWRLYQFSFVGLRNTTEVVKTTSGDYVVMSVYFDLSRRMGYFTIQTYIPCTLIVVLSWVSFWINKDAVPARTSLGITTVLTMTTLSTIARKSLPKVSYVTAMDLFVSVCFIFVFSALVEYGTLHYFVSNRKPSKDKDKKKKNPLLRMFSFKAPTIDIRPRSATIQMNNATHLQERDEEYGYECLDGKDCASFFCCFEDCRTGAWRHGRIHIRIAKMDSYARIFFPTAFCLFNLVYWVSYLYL
T2 sequence (P34903 29-492): as the sequence (P34903 29-492) above
T2 sequence (P47870 25-512 partner limits assumed): as the sequence (P47870 25-512 partner limits assumed) above
T2 sequence (P18507 40-467 isoform P18507-1 limits assumed): as the sequence (P18507 40-467 isoform P18507-1 limits assumed) above
T3 sequence (P47869 29-451): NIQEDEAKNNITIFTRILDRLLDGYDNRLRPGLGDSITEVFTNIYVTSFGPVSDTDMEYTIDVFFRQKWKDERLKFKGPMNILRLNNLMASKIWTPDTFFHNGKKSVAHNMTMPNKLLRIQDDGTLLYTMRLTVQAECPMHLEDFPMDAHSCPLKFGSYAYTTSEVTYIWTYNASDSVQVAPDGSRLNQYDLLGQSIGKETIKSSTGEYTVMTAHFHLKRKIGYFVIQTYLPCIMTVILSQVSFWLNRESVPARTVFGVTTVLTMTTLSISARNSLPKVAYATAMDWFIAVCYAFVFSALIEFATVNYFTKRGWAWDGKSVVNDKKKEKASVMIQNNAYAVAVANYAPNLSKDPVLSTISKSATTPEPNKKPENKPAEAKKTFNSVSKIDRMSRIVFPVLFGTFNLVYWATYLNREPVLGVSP
T3 sequence (P47870 25-512 partner limits assumed): as the sequence (P47870 25-512 partner limits assumed) above
T3 sequence (P18507 40-467 isoform P18507-1 limits assumed): as the sequence (P18507 40-467 isoform P18507-1 limits assumed) above
T5 sequence (P31644 32-462): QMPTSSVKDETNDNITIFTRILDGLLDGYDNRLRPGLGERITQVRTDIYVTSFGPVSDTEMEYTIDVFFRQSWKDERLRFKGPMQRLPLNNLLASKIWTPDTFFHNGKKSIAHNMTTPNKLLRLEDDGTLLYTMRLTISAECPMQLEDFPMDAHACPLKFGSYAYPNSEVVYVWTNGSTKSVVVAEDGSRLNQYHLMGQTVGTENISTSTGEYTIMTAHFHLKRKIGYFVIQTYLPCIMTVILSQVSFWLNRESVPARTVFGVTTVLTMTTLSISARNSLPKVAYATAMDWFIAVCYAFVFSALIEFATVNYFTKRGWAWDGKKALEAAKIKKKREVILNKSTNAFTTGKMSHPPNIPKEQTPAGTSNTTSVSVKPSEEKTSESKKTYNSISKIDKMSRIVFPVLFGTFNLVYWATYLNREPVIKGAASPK
T5 sequence (P47870 25-512 partner limits assumed): as the sequence (P47870 25-512 partner limits assumed) above
T5 sequence (P18507 40-467 isoform P18507-1 limits assumed): as the sequence (P18507 40-467 isoform P18507-1 limits assumed) above

## COc1ncc(-c2cccc(-n3cnc4cc(C(C)(C)O)ccc43)c2)c(OC)n1 [Compound 9, reference compound]
[1]
  modulation of GABA-mediated currents, α1β2γ2 receptor: clearly negative

## CN1C(=O)CN=C(c2ccccc2)c2cc(Cl)ccc21 [Diazepam]
[2]
  latency to fall off accelerating rotarod: significantly shortened the time to fall off the rod; also recorded: significantly shortened the latency to fall off

## CN1CC[C@]23c4c5ccc(O)c4O[C@H]2[C@@H](O)C=C[C@H]3[C@H]1C5.Cl [Morphine hydrochloride, reference compound]
[3]; 6 mg/kg subcutaneous once daily for 7 days, hydrochloride
  paw withdrawal threshold vs vehicle after chronic dosing: completely abolished the allodynic effect; also recorded: completely lost
[3]; acute, 6 mg/kg subcutaneous
  paw withdrawal threshold vs vehicle: significantly enhanced paw withdrawal threshold

## COc1ncc(-c2cccc(-n3cnc4cc(C(C)(C)O)cnc43)c2)c(OC)n1 [Compound 1, 2-(3-(3-(2,4-dimethoxypyrimidin-5-yl)phenyl)-3H-imidazo[4,5-b]pyridin-6-yl)propan-2-ol]
[4]; 3, 10, 30 mg/kg oral gavage, 30 min prior, significant at 10 and 30 mg/kg
  bouts of scratching over 30 minutes vs vehicle: significantly relieved itching; also recorded: dose dependently reduced
[4]; oral gavage 30 min before compound 48/80
  minimal effective dose, bouts of scratching: 10 mg/kg
[5]
  potentiation of GABA-mediated currents in GABAA-α3 containing receptors: preferential potentiation
IV 0.5 mg/kg, rat
  CI: 6.33 mL/min/kg
Dose 1 mg/kg (Table 3)
  concentration after 8 h: *AUC calculated 0-8 h, concentration after 8 h was 149 ng/ml.
[3]; 1, 3, 10 mg/kg per oral once daily for 7 days
  paw withdrawal threshold vs vehicle after chronic dosing: significant enhancement of the paw withdrawal threshold was maintained
[3]; 1, 3, 10 mg/kg per oral once daily for 7 days, listed as compound 1
  paw withdrawal threshold vs vehicle after chronic dosing: significant analgesic effect of all 3 doses were maintained
[3]; acute, 1 mg/kg per oral, 2 hrs and 3 hrs post treatment
  paw withdrawal threshold vs vehicle: significantly enhanced paw withdrawal threshold
[3]; acute, 3 mg/kg per oral, 2 hrs and 3 hrs post treatment
  paw withdrawal threshold vs vehicle: significantly enhanced paw withdrawal threshold
[3]; acute, 10 mg/kg per oral
  paw withdrawal threshold vs vehicle: just failed to reach statistical significance
[3]; acute, oral administration, CCI rats
  minimal effective dose, reversal of mechanical allodynia: less than or equal to 1 mg/kg
[6]
  activation of GABAA-α2 containing receptors: less than 10%
[7]
  exploratory locomotor activity: did not exert any effect; also recorded: did not affect exploratory locomotor activity
[1]
  modulation of GABA-mediated currents, α1β2γ2 receptor: no activation
[1]; listed as compound 1
  modulation of GABA-mediated currents, α1β2γ2 receptor: close to zero
[8]
  IC50: 38 nM
  Ki: 15 nM
[9]
  activation of GABAA-α5 containing receptors: less than 10%
